Test results as given in US20030104507A1, “Method for detection of ATP” (priority 2001, published 2003).

Test system: ATPase activity endogenous to L929 cell lysate
Test: Detergent inhibition of ATPase endogenous to L929 cell lysate (ATP remaining by luciferase luminescence, 22° C.)
Type: biochemical
Parameters: key to Relative ATPase Activity, slope det/slope lysate: slope with detergent / slope without; ≥1.0 = 100% activity, 0.5 = 50%
Settings: for times more ATP present in the sample after four hours when the detergent was present than when it was absent: SDS 0.05%, deoxycholate 0.5% and 0.1%; for concentrations which resulted in a 25% or greater decrease in the relative ATPase activity: compared to reactions in the absence of detergent
Procedure, shortened: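 L929 lysate (1.5×10^5 cells/ml, four freeze–thaw cycles) held with detergent at final 1.0, 0.5, 0.1 or 0.05% at 22° C; remaining ATP read over time with luciferase-luciferin reagent (100 μM luciferin, 10 mM MgSO4, pH 7.5). Relative ATPase activity = slope of log % ATP remaining vs time with detergent ÷ slope for lysate-only control.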

[1] = Example 2, 0.02% detergent, 5 min
[2] = Example 2, 0.02% detergent, 75 min
[3] = Example 2, 0.02% detergent, 169 min
[4] = Example 2, 0.02% detergent, 222 min
[5] = Example 2, 0.02% detergent, 260 min
[6] = Example 2, 0.002% detergent, 5 min
[7] = Example 2, 0.002% detergent, 75 min
[8] = Example 2, 0.002% detergent, 169 min
[9] = Example 2, 0.002% detergent, 222 min
[10] = Example 2, 0.002% detergent, 260 min
[11] = Example 2, 0.01% detergent, 5 min
[12] = Example 2, 0.01% detergent, 75 min
[13] = Example 2, 0.01% detergent, 169 min
[14] = Example 2, 0.01% detergent, 222 min
[15] = Example 2, 0.01% detergent, 260 min

Structure (SMILES): C[C@H](CCC(=O)[O-])[C@H]1CC[C@H]2[C@@H]3CC[C@@H]4C[C@H](O)CC[C@]4(C)[C@H]3C[C@H](O)[C@]12C.[Na+] [Deoxycholate, sodium deoxycholate]
- Relative ATPase Activity, slope det/slope lysate (0.02 percent detergent): 1.004
- Slope (log percent ATP remaining vs time in minutes) (0.02 percent detergent): −0.0064
- Average Relative Light Unit Values (0.05% detergent, 5 min): 5810.85 rlu
- Percent ATP Remaining (0.05% detergent, 5 min): 100%
- Average Relative Light Unit Values (0.05% detergent, 75 min): 1729.95 rlu
- Percent ATP Remaining (0.05% detergent, 75 min): 29.8%
- Average Relative Light Unit Values (0.05% detergent, 169 min): 738.1 rlu
- Percent ATP Remaining (0.05% detergent, 169 min): 12.7%
- Average Relative Light Unit Values (0.05% detergent, 222 min): 375.74 rlu
- Percent ATP Remaining (0.05% detergent, 222 min): 6.5%
- Average Relative Light Unit Values (0.05% detergent, 260 min): 188.59 rlu
- Percent ATP Remaining (0.05% detergent, 260 min): 3.2%
- Relative ATPase Activity, slope det/slope lysate (0.05 percent detergent): 0.984
- Slope (log percent ATP remaining vs time in minutes) (0.05 percent detergent): −0.0055
- Average Relative Light Unit Values (0.1% detergent, 5 min): 6422.34 rlu
- Percent ATP Remaining (0.1% detergent, 5 min): 100%
- Average Relative Light Unit Values (0.1% detergent, 75 min): 3730.44 rlu
- Percent ATP Remaining (0.1% detergent, 75 min): 57.9%
- Average Relative Light Unit Values (0.1% detergent, 169 min): 1627.81 rlu
- Percent ATP Remaining (0.1% detergent, 169 min): 25.3%
- Average Relative Light Unit Values (0.1% detergent, 222 min): 1028.42 rlu
- Percent ATP Remaining (0.1% detergent, 222 min): 16.0%
- Average Relative Light Unit Values (0.1% detergent, 260 min): 669.31 rlu
- Percent ATP Remaining (0.1% detergent, 260 min): 10.4%
- Relative ATPase Activity, slope det/slope lysate (0.10 percent detergent): 0.684
- Slope (log percent ATP remaining vs time in minutes) (0.10 percent detergent): −0.0038
- Average Relative Light Unit Values (0.5% detergent, 5 min): 3189.56 rlu
- Percent ATP Remaining (0.5% detergent, 5 min): 100%
- Average Relative Light Unit Values (0.5% detergent, 75 min): 2715.45 rlu
- Percent ATP Remaining (0.5% detergent, 75 min): 85.1%
- Average Relative Light Unit Values (0.5% detergent, 169 min): 2268.77 rlu
- Percent ATP Remaining (0.5% detergent, 169 min): 71.1%
- Average Relative Light Unit Values (0.5% detergent, 222 min): 2105.38 rlu
- Percent ATP Remaining (0.5% detergent, 222 min): 66.0%
- Average Relative Light Unit Values (0.5% detergent, 260 min): 1845.36 rlu
- Percent ATP Remaining (0.5% detergent, 260 min): 57.9%
- Relative ATPase Activity, slope det/slope lysate (0.50 percent detergent): 0.158
- Slope (log percent ATP remaining vs time in minutes) (0.50 percent detergent): −0.0009
- Average Relative Light Unit Values (1.0% detergent, 5 min): 3.98 rlu
- Average Relative Light Unit Values (1.0% detergent, 75 min): 3.63 rlu
- Average Relative Light Unit Values (1.0% detergent, 169 min): 3.63 rlu
- Average Relative Light Unit Values (1.0% detergent, 222 min): 3.15 rlu
- Average Relative Light Unit Values (1.0% detergent, 260 min): 3.24 rlu
- Average Relative Light Unit Values [1]: 5962.61 rlu
- Percent ATP Remaining [1]: 100.00%
- Average Relative Light Unit Values [2]: 1694.47 rlu
- Percent ATP Remaining [2]: 28.42%
- Average Relative Light Unit Values [3]: 368.11 rlu
- Percent ATP Remaining [3]: 6.17%
- Average Relative Light Unit Values [4]: 241.05 rlu
- Percent ATP Remaining [4]: 4.04%
- Average Relative Light Unit Values [5]: 135.25 rlu
- Percent ATP Remaining [5]: 2.27%
- times more ATP present in the sample after four hours when the detergent was present than when it was absent: about three to about twenty
- concentrations which resulted in a 25% or greater decrease in the relative ATPase activity: ≥ 0.1%

Structure (SMILES): CCCCCCCCCCCCOS(=O)(=O)[O-].[Na+] [SDS, Sodium dodecyl sulfate]
- Relative ATPase Activity, slope det/slope lysate (0.002 percent detergent): 1.010
- Slope (log percent ATP remaining vs time in minutes) (0.002 percent detergent): −0.0064
- Relative ATPase Activity, slope det/slope lysate (0.01 percent detergent): 0.702
- Slope (log percent ATP remaining vs time in minutes) (0.01 percent detergent): −0.00385
- Average Relative Light Unit Values (0.05% detergent, 5 min): 1181.17 rlu
- Percent ATP Remaining (0.05% detergent, 5 min): 100%
- Average Relative Light Unit Values (0.05% detergent, 75 min): 1060.03 rlu
- Percent ATP Remaining (0.05% detergent, 75 min): 89.7%
- Average Relative Light Unit Values (0.05% detergent, 169 min): 949.7 rlu
- Percent ATP Remaining (0.05% detergent, 169 min): 80.4%
- Average Relative Light Unit Values (0.05% detergent, 222 min): 921.86 rlu
- Percent ATP Remaining (0.05% detergent, 222 min): 78.0%
- Average Relative Light Unit Values (0.05% detergent, 260 min): 803.0 rlu
- Percent ATP Remaining (0.05% detergent, 260 min): 68.0%
- Relative ATPase Activity, slope det/slope lysate (0.05 percent detergent): 0.105
- Slope (log percent ATP remaining vs time in minutes) (0.05 percent detergent): −0.0006
- Average Relative Light Unit Values (0.1% detergent, 5 min): 0.31 rlu
- Average Relative Light Unit Values (0.1% detergent, 75 min): 0.18 rlu
- Average Relative Light Unit Values (0.1% detergent, 169 min): 0.21 rlu
- Average Relative Light Unit Values (0.1% detergent, 222 min): 0.26 rlu
- Average Relative Light Unit Values (0.1% detergent, 260 min): 0.34 rlu
- Average Relative Light Unit Values (0.5% detergent, 5 min): 0.00 rlu
- Average Relative Light Unit Values (0.5% detergent, 75 min): 0.00 rlu
- Average Relative Light Unit Values (0.5% detergent, 169 min): 0.02 rlu
- Average Relative Light Unit Values (0.5% detergent, 222 min): 0.00 rlu
- Average Relative Light Unit Values (0.5% detergent, 260 min): 0.00 rlu
- Average Relative Light Unit Values (1.0% detergent, 5 min): 0.01 rlu
- Average Relative Light Unit Values (1.0% detergent, 75 min): 0.00 rlu
- Average Relative Light Unit Values (1.0% detergent, 169 min): 0.01 rlu
- Average Relative Light Unit Values (1.0% detergent, 222 min): 0.00 rlu
- Average Relative Light Unit Values (1.0% detergent, 260 min): 0.01 rlu
- Average Relative Light Unit Values [6]: 5773.39 rlu
- Percent ATP Remaining [6]: 100.00%
- Average Relative Light Unit Values [7]: 1574.34 rlu
- Percent ATP Remaining [7]: 27.27%
- Average Relative Light Unit Values [8]: 278.67 rlu
- Percent ATP Remaining [8]: 4.83%
- Average Relative Light Unit Values [9]: 236.28 rlu
- Percent ATP Remaining [9]: 4.09%
- Average Relative Light Unit Values [10]: 128.58 rlu
- Percent ATP Remaining [10]: 2.23%
- Average Relative Light Unit Values [11]: 13116.20 rlu
- Percent ATP Remaining [11]: 100.00%
- Average Relative Light Unit Values [12]: 10753.03 rlu
- Percent ATP Remaining [12]: 48.62%
- Average Relative Light Unit Values [13]: 12051.63 rlu
- Percent ATP Remaining [13]: 25.80%
- Average Relative Light Unit Values [14]: 11822.03 rlu
- Percent ATP Remaining [14]: 14.20%
- Average Relative Light Unit Values [15]: 11900.73 rlu
- Percent ATP Remaining [15]: 8.79%
- times more ATP present in the sample after four hours when the detergent was present than when it was absent: about three to about twenty
- concentrations which resulted in a 25% or greater decrease in the relative ATPase activity: ≥ 0.01%
